Assay results reported in article PMC6526634, “Preparation of bioactive peptides with antidiabetic, antihypertensive, and antioxidant activities and identification of α‐glucosidase inhibitory peptides from soy protein” (Food Science & Nutrition, 2019).
Where a SMILES comes first, the peptide text is derived from it.

Tests used:
[1] = target: T1, α‐glucosidase from Saccharomyces cerevisiae (Saccharomyces cerevisiae, UniProt P53341); test: α‐glucosidase inhibitory activity assay; type: biochemical
T1 construct: purchased Sigma-Aldrich
Method: All other chemicals and reagents were of analytical grade and commercially available.
α‐glucosidase inhibitory activity assay was performed according to a method by Kim with slight modifications (Kim, Wang, & Rhee, 2004). The α‐glucosidase inhibitory rate of the hydrolysate was estimated in a 96‐well microplate using a MR‐96A microplate reader (Mindray) by monitoring the amount of 4‐nitrophenol (PNP) released from 4‐nitrophenol‐α‐D‐glucopyranoside (PNPG). A dose (50 μl) of sodium phosphate buffer (pH 6.8, 0.2 M), 50 μL of PNPG (1 mg/ml) dissolved in sodium phosphate buffer, and 50 μl of the samples dissolved in the same buffer were mixed adequately in a 96‐well microplate. Then, it was incubated for 5 min at 37°C, and the reaction started immediately followed by the addition of 10 μl of α‐glucosidase solution (0.2 U/ml of the buffer). The plate was incubated for another 30 min at 37°C, and then, the reaction was terminated by the addition of 80 μl of 1 M Na2CO3 solution. The absorbance of released product PNP was measured immediately at 405 nm. […] The percentage of α‐glucosidase inhibition was calculated as follows:(1) α-glucosidase inhibition rate%=ODA-ODS/ODA-ODB×100 where ODA is the absorbance of the supernatant in which the sample is replaced by the same amount of buffer; ODS is the absorbance of the supernatant with the tested sample; and ODBis the absorbance of the supernatant in which the tested sample and α‐glucosidase solution are replaced by the same amount of buffer.

[2] = Hydroxyl radical scavenging ability; details: Fenton reaction, salicylic acid, 37℃, 30 min, absorbance 510 nm; mean ± SD of three replicates
Method: The antioxidant activity of the soy protein peptides was determined by a hydroxyl radical scavenging assay involving in the Fenton reaction, according to Hanasaki (Hanasaki, Ogava, & Fukui, 1994). The samples were prepared into 0.1, 0.5, 2, 5, and 10 mg/ml. Then, 1 ml of 9 µmol/L FeSO4 solution and 1 ml of salicylic acid–ethanol solution (9 µmol/L，50% ethanol solution) were added respectively and mixed well, with the addition of 1 ml of […] H2O2 (0.03%) reaction initiated. The mixture was incubated in a 37℃ water bath for 30 min and then centrifuged at 2,896 g for 5 min to remove the precipitation. The absorbance of the supernatant was measured at 510 nm. The hydroxyl radical clearance rate was calculated as follows:(4) Hydroxyl radical clearance rate%=1-A1-A2/A0×100 where A 1 is the absorbance of the sample supernatant, A 2 is the absorbance of the supernatant in which the salicylic acid–ethanol is replaced by the same amount of ethanol, and A 0 is the absorbance of the supernatant in which the sample is replaced by distilled water. The ascorbic acid was used as a positive control.

[3] = Ferric reducing antioxidant power (FRAP) activity; details: 1, 2, 5, 10, and 20 mg/ml, potassium ferricyanide, pH 6.6, 50℃, 30 min, absorbance 700 nm
Method: The FRAP assay was used to determine the antioxidative of the samples using the method described by Tsai et al with some modifications (Tsai, Huang, & Mau, 2006) and to configure the sample solution with the concentration of 1, 2, 5, 10, and 20 mg/ml. Using 1 ml of sample mixed with 2.5 ml of 0.2 mol/L sodium phosphate buffer (pH 6.6) and 2.5 ml of 1% potassium ferricyanide solution incubated at 50℃ for 30 min, add 2.5 ml of 10% trichloroacetic acid solution, centrifuged at 1,042 g for 10 min, and then collected 2.5 ml of supernatant mixed with 2.5 ml of distilled water and 0.5 ml of 0.1% ferric chloride solution. The absorbance at 700 nm was measured after 10 min by a 754 PC spectrophotometer (Shanghai, China). FeSO4 aqueous solution was used as positive control.

T1 sequence (P53341 whole entry): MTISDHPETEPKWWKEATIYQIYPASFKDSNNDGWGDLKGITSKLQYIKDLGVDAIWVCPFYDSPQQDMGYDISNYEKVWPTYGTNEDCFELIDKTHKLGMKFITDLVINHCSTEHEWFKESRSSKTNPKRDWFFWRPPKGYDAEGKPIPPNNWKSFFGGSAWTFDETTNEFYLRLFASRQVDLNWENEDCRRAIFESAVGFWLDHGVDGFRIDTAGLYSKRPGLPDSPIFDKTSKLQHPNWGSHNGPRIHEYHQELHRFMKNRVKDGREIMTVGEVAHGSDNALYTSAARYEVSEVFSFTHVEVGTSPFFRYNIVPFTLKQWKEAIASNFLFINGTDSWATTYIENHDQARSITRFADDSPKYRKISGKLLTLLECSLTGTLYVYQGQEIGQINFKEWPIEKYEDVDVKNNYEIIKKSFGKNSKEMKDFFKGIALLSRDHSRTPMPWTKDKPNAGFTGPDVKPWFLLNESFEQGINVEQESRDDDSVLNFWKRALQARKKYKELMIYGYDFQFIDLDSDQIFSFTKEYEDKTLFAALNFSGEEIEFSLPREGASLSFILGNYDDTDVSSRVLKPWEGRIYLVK

Molecule: CC(C)C[C@H](NC(=O)[C@@H](NC(=O)[C@@H]1CCCN1C(=O)[C@H](CC(C)C)NC(=O)[C@@H]1CCCN1C(=O)[C@H](CC(C)C)NC(=O)[C@@H](N)CC(C)C)C(C)C)C(=O)N[C@@H](CCCCN)C(=O)O (H-LLPLPVLK-OH)
- IC50 [1]: 237.4 ± 0.52 µM

Molecule: CC(C)C[C@H](NC(=O)[C@H](CCCNC(=N)N)NC(=O)[C@H](CC(C)C)NC(=O)[C@H](Cc1c[nH]c2ccccc12)NC(=O)[C@@H](N)CO)C(=O)O [SWLRL] (H-SWLRL-OH)
- IC50 [1]: 182.1 ± 0.74 µM

Molecule: CC(C)C[C@H](NC(=O)[C@H](CCCNC(=N)N)NC(=O)[C@H](CC(C)C)NC(=O)[C@@H](N)Cc1c[nH]c2ccccc12)C(=O)O [WLRL] (H-WLRL-OH)
- IC50 [1]: 165.3 ± 0.74 µM

Molecule: O=C1O[C@H]([C@@H](O)CO)C(O)=C1O [vitamin C, ascorbic acid]
- hydroxyl radical scavenging ability IC50 [2]: 540 ± 40 mg/L

Molecule: MLPVMR [hexapeptide identified from soy protein AP hydrolysate fraction H1‐2, then synthesized]
- α‐glucosidase inhibition, result in words ([1]; synthetic peptide or DEAE‐52 fraction, test concentration not given): did not show inhibitory activity

Molecule: ferrous sulfate [FeSO4]
- iron ion reduction ability (FRAP) [3]: linearly related to concentration
- iron ion reduction ability (FRAP) ([3]; listed as ferrous sulfate): stronger reduction ability
